Test results: US20250002470A1, “NITROGEN-CONTAINING COMPOUND, PREPARATION METHOD THEREFOR AND APPLICATION THEREOF” (ZHEJIANG AIXPLORER BIOTECH CO., LTD., priority 2021, published 2025)

Test system: IL-18
Experiment: IL-18 cytokine in LPS-induced sepsis mouse model
Assay type: in vivo, C57BL/6J mice
Conditions: for IL-18: given 30 minutes before LPS (10 mg/kg i.p.), serum 2 hours after LPS
Description: The purpose of this study was to investigate and evaluate the inhibitory effect of the test compound on […] and IL-18 cytokine production in a mouse model of lipopolysaccharide (LPS)-induced sepsis.
6-8 weeks female C57BL/6J mice, randomized, 5 animals in the Naïve group, and the rest of the groups (vehicle group, 15 mg/kg group with embodiment 33 compound, 50 mg/kg group with embodiment 33 compound and 150 mg/kg group with embodiment 33 compound, wherein 15 mg/kg, 50 mg/kg and 150 mg/kg is the dosage of embodiment 33, mg/kg is referred to as mpk) 10 animals per group. Among them, the Naïve group was not stimulated with LPS, and the 10 mice in each group were intraperitoneally injected with LPS (10 mg/kg) to induce sepsis model in the mouse. The vehicle (corresponding to the vehicle group) and the test compound (corresponding to the 15mpk group of Example 33, the 50mpk group of Example 33 and the 150mpk group of Example 33 respectively) were administered 30 minutes before LPS stimulation. 2 hours after LPS stimulation, the mice were euthanized, and whole blood was collected from the heart and placed in EP tubes, left to stand at room temperature for 1 hour, and centrifuged at 8000 rpm for 10 minutes to collect serum for measurement of cytokines IL-10 and IL-18.
After the kit is taken out of the refrigerator, it should be equilibrated at room temperature (25-28° C.) for 20 minutes; the remaining reagents should be stored at 4° C. immediately after each test.
Prepare an appropriate amount of standard diluent: dilute the standard diluent (5×) to 1× with double-distilled or deionized water. For example, add 10 mL of standard diluent (5×) to 40 mL of water and mix well to obtain a 1× standard. Diluent.
Prepare an appropriate amount of washing liquid: Dilute the washing liquid (20×) with double-distilled or deionized water to 1×. For example, add 10 mL of washing liquid (20×) to 190 mL of water and mix well to obtain a 1×washing liquid.
Standard preparation: Add the standard diluent to one bottle of standard according to the volume (0.5 mL) marked on the standard label, incubate at room temperature for 15 minutes, then mix gently and pipet several times with a pipette to completely dissolve the standard. The final concentration of the standard reaches 1500 pg/mL. Take […] 1.5 mL centrifuge tubes, add 250 μL of standard diluent to each tube in advance, and perform dilutions of the standard to obtain a total of 1500, 750, 375, 187.5, 93.75, 46.875, and 23.4375 pg/mL. standard concentration, and finally add the diluted standard to the pre-coated plate wells in sequence, and add the standard diluent directly as a concentration of 0 pg/mL, for a total of 8 standard concentrations. […]

## Cc1nc(N[C@@H]2CCCC[C@H]2O)nnc1-c1ccc(C(F)(F)F)cc1O [Embodiment 33]
15 mpk
  IL-18: 560.5 ± 46.39
50 mpk
  IL-18: 320.1 ± 29.69
150 mpk
  IL-18: 216.2 ± 9.238
Two doses of 50 mg/kg and 150 mg/kg
  inhibitory effect on IL-18 compared with the Vehicle group: significant inhibitory effect
